According to ChEMBL document CHEMBL1201862, “PubChem BioAssay data set” (2004):
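The compound was tested at five concentrations on cells cultured in 96-well plates, with a 48-hour exposure period. The concentration for 50% growth inhibition is given as GI50.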 Activity calls are given as the source filed them. Rule as the data show it: active = GI50 up to about 1.1 µM and inactive = higher. Non-standard residues stand in square brackets, D forms with d. Residues, ends and D or L forms follow the SMILES beside them. *: point of attachment. Benzoyl(4-OMe) = COc1ccc(C(=O)*)cc1; 2Thi = N[CH](Cc1cccs1)C(=O)O

What was measured:
Test in all cases: growth of human tumour cells (NCI), 48 h
[1] = tested on: ACHN
[2] = tested on: NCI-H226
[3] = tested on: MCF7
[4] = tested on: T47D
[5] = tested on: Hs-578T
[6] = tested on: MDA-N
[7] = tested on: SK-MEL-5
[8] = tested on: KM12
[9] = tested on: 786-0
[10] = tested on: SNB-19
[11] = tested on: SW-620
[12] = tested on: NCI-H522
[13] = tested on: SF-268
[14] = tested on: K562
[15] = tested on: SNB-75
[16] = tested on: HOP-92
[17] = tested on: SK-OV-3
[18] = tested on: CCRF-CEM
[19] = tested on: IGROV-1
[20] = tested on: NCI/ADR-RES
[21] = tested on: M14
[22] = tested on: HL-60
[23] = tested on: DU-145
[24] = tested on: MDA-MB-435
[25] = tested on: SK-MEL-2
[26] = tested on: MDA-MB-231
[27] = tested on: UO-31
[28] = tested on: EKVX
[29] = tested on: Malme-3M
[30] = tested on: COLO 205
[31] = tested on: HCT-15
[32] = tested on: NCI-H23
[33] = tested on: U-251
[34] = tested on: SF-539
[35] = tested on: HT-29
[36] = tested on: BT-549
[37] = tested on: SN12C
[38] = tested on: RPMI-8226
[39] = tested on: SK-MEL-28
[40] = tested on: OVCAR-3
[41] = tested on: NCI-H460
[42] = tested on: LOX IMVI
[43] = tested on: A549
[44] = tested on: UACC-257
[45] = tested on: HCT-116
[46] = tested on: UACC-62
[47] = tested on: RXF 393
[48] = tested on: A498
[49] = tested on: TK-10
[50] = tested on: OVCAR-5
[51] = tested on: OVCAR-8
[52] = tested on: PC-3
[53] = tested on: SF-295
[54] = tested on: HCC 2998
[55] = tested on: HOP-62
[56] = tested on: MOLT-4
[57] = tested on: OVCAR-4
[58] = tested on: CAKI-1
[59] = tested on: SR

Measured: GI50

CC(NNC(=O)CC(=O)N(C(=O)c1ccccc1)c1ccc(Cl)cc1)c1cc2ccccc2oc1=O (centres undefined)
active: [27] 0.0995 µM
> 10 µM: [31]
inactive: [1] > 10 µM | [2] > 10 µM | [3] > 10 µM | [4] > 10 µM | [5] > 10 µM | [6] > 10 µM | [7] > 10 µM | [8] > 10 µM | [9] > 10 µM | [10] > 10 µM | [11] > 10 µM | [12] > 10 µM | [13] > 10 µM | [14] > 10 µM | [15] > 10 µM | [16] > 10 µM | [17] > 10 µM | [18] > 10 µM | [19] > 10 µM | [20] > 10 µM | [21] > 10 µM | [22] > 10 µM | [23] > 10 µM | [24] > 10 µM | [25] > 10 µM | [26] > 10 µM | [28] > 10 µM | [29] > 10 µM | [30] > 10 µM | [32] > 10 µM | [33] > 10 µM | [34] > 10 µM | [35] > 10 µM | [36] > 10 µM | [37] > 10 µM | [38] > 10 µM | [39] > 10 µM | [40] > 10 µM | [41] > 10 µM | [42] > 10 µM | [43] > 10 µM | [44] > 10 µM | [45] > 10 µM | [46] > 10 µM | [47] > 10 µM | [48] > 10 µM | [49] > 10 µM | [50] > 10 µM | [51] > 10 µM | [52] > 10 µM | [53] > 10 µM | [54] > 10 µM | [55] > 10 µM | [56] > 10 µM | [57] > 10 µM | [58] > 10 µM

CCC(C)C(NC(=O)C(Cc1cccs1)NC(=O)C(CC(C)C)NC(=O)C(CC(C)C)NC(=O)C(CCCCN)NC(=O)C(CCCNC(=N)N)NC(=O)c1ccc(OC)cc1)C(=O)NC(CC(C)C)C(N)=O (centres undefined) ({Benzoyl(4-OMe)}-RKLL[2Thi]IL-NH2; configuration not given here)
inactive: [1] > 100 µM | [2] > 100 µM | [3] > 100 µM | [4] > 100 µM | [5] > 100 µM | [6] > 100 µM | [7] > 100 µM | [8] > 100 µM | [9] > 100 µM | [10] > 100 µM | [11] > 100 µM | [12] > 100 µM | [13] > 100 µM | [14] > 100 µM | [15] > 100 µM | [17] > 100 µM | [18] 78.2 µM | [20] > 100 µM | [21] > 100 µM | [23] > 100 µM | [24] > 100 µM | [26] > 100 µM | [27] > 100 µM | [28] > 100 µM | [29] > 100 µM | [30] > 100 µM | [32] > 100 µM | [33] > 100 µM | [34] > 100 µM | [35] > 100 µM | [36] > 100 µM | [37] > 100 µM | [38] > 100 µM | [39] > 100 µM | [40] > 100 µM | [41] > 100 µM | [42] > 100 µM | [43] > 100 µM | [44] > 100 µM | [45] > 100 µM | [46] > 100 µM | [47] > 100 µM | [48] > 100 µM | [49] > 100 µM | [59] > 100 µM | [50] > 100 µM | [51] > 100 µM | [52] > 100 µM | [53] > 100 µM | [54] > 100 µM | [55] > 100 µM | [56] > 100 µM | [57] > 100 µM | [58] > 100 µM
> 100 µM: [31]

CN(C)C(C1=C(O)C(c2ccccc2)N(c2ccccc2)C1=O)N1CCOCC1 (centres undefined)
> 10 µM: [31]
inactive: [1] > 10 µM | [2] > 10 µM | [3] > 10 µM | [4] > 10 µM | [5] > 10 µM | [6] > 10 µM | [7] > 10 µM | [8] > 10 µM | [9] > 10 µM | [10] > 10 µM | [11] > 10 µM | [12] > 10 µM | [13] > 10 µM | [14] > 10 µM | [15] > 10 µM | [16] > 10 µM | [17] > 10 µM | [18] > 10 µM | [19] > 10 µM | [20] > 10 µM | [21] > 10 µM | [22] > 10 µM | [23] > 10 µM | [24] > 10 µM | [25] > 10 µM | [26] > 10 µM | [27] > 10 µM | [28] > 10 µM | [29] > 10 µM | [30] > 10 µM | [32] > 10 µM | [33] > 10 µM | [34] > 10 µM | [35] > 10 µM | [36] > 10 µM | [37] > 10 µM | [38] > 10 µM | [39] > 10 µM | [40] > 10 µM | [41] > 10 µM | [42] > 10 µM | [43] > 10 µM | [44] > 10 µM | [45] > 10 µM | [46] > 10 µM | [47] > 10 µM | [48] > 10 µM | [49] > 10 µM | [50] > 10 µM | [51] > 10 µM | [52] > 10 µM | [53] > 10 µM | [54] > 10 µM | [55] > 10 µM | [56] > 10 µM | [57] > 10 µM | [58] > 10 µM

COc1c(-c2ccc3c(c2)OCO3)oc2cc3c(c(OC)c2c1=O)OCO3 [MELITERNATIN]
active: [22] 1.09 µM
inactive: [1] 22.3 µM | [2] 18.7 µM | [3] 18.4 µM | [4] 16.2 µM | [5] 31.1 µM | [6] 18.5 µM | [7] 18.4 µM | [8] 25.5 µM | [9] 48.2 µM | [10] 18.4 µM | [11] 25.1 µM | [12] 21.5 µM | [13] 14.2 µM | [14] 23.8 µM | [15] 16.3 µM | [16] 15.3 µM | [17] 18.3 µM | [18] 30.8 µM | [19] 18.7 µM | [20] 27.6 µM | [21] 26.2 µM | [23] 30.5 µM | [24] 17.6 µM | [25] 19.6 µM | [26] 43 µM | [27] 23 µM | [28] 24.5 µM | [29] 24.8 µM | [30] 23.1 µM | [32] 22.8 µM | [33] 16.6 µM | [34] 16.3 µM | [35] 23.3 µM | [36] 12.8 µM | [37] 16 µM | [39] 38.1 µM | [40] 22.4 µM | [41] 14.4 µM | [42] 11.6 µM | [43] 20.2 µM | [44] 38.5 µM | [45] 16.2 µM | [46] 23.9 µM | [47] 28.5 µM | [48] 23.5 µM | [49] 25.5 µM | [50] 29.8 µM | [51] 19.1 µM | [52] 21.1 µM | [53] 22.6 µM | [54] 26.9 µM | [55] 15.4 µM | [56] > 100 µM | [57] 24.2 µM | [58] 23.8 µM
30.8 µM: [31]

CC1(C)Oc2ccc3c(=O)c4ccccc4oc3c2C1C(=O)O (centres undefined)
inactive: [2] > 100 µM | [3] > 100 µM | [4] > 100 µM | [5] > 100 µM | [6] > 100 µM | [7] > 100 µM | [9] > 100 µM | [12] > 100 µM | [13] > 100 µM | [14] > 100 µM | [17] > 100 µM | [18] > 100 µM | [19] > 100 µM | [20] > 100 µM | [21] > 100 µM | [23] > 100 µM | [24] > 100 µM | [25] > 100 µM | [26] > 100 µM | [28] > 100 µM | [29] > 100 µM | [30] > 100 µM | [32] > 100 µM | [33] > 100 µM | [34] > 100 µM | [35] > 100 µM | [36] > 100 µM | [37] > 100 µM | [40] > 100 µM | [43] > 100 µM | [44] > 100 µM | [45] > 100 µM | [46] > 100 µM | [47] > 100 µM | [48] > 100 µM | [49] > 100 µM | [59] > 10 µM | [50] > 100 µM | [51] > 100 µM | [52] > 100 µM | [53] > 100 µM | [54] > 100 µM | [55] > 100 µM | [56] > 100 µM | [57] > 100 µM | [58] > 100 µM
